Experimental data taken from patent US9707267B2, “Beta-turn peptidomimetic cyclic compounds for treating dry eye” (Mimetogen Pharmaceuticals, Inc., priority 2008, dated 2017).

How the values were obtained:
p42/44 MAPK = assay: Activation of p42/44 MAPK in goblet cells, Western blot (Example 2); format: cell-based, rat; settings: 5 minutes, phospho-MAPK relative to actin
Procedure: The activation of p42/44 MAPK was examined using Western blot techniques. Goblet cells were serum starved in serum-free RPMI for 4-6 hrs prior to the addition of PMA (100 nM), NGF (1 or 10 nM), or MIM-D3 (10 or 50 μM) for 5 minutes at 37° C. After, cells were rinsed once in cold PBS, scraped in 100 μL of 1×SDS-PAGE sample buffer [62.5 mM Tris-HCl pH 6.8, 10% glycerol, 2% SDS, 5% β-mercaptoethanol, 0.02 mg/mL bromophenol blue] and sonicated for 20 minutes. The homogenates were centrifuged at 14,900 g for 15 min at 4° C. Proteins in a […] of the supernatant were separated by SDS-PAGE (8% acrylamide gels) and transferred to nitrocellulose membranes. The membranes were blocked for 2 hours in 5% non-fat dried milk in buffer containing 20 mM Tris-HCl, pH 8.0, 150 mM NaCl, and 0.01% Tween-20 (TBST). The blots were then probed with an antibody directed against the phosphorylated form of MAPK1/2 (Calbiochem, San Diego, Calif.) at 0.1 μg/mL in TBST containing 5% BSA overnight at 4° C., followed by a 1 hour incubation in HRP-conjugated secondary anti-mouse antibody (Sigma, St. Louis, Mo.) at room temperature in TBST containing 5% non-fat dried milk. Immunoreactive bands were visualized using the enhanced chemiluminescence method (Perkin Elmer, Waltham, Mass.). The blots were stripped at 55° C. for 30 minutes in stripping buffer [62.5 mM Tris-HCl pH 6.8, 2% SDS, 0.1M β-mercaptoethanol] followed by re-probing with an antibody directed against actin (1:5000 dilution, Sigma, St. Louis, Mo.) in TBST containing 5% non-fat dried milk and incubation in HRP-conjugated secondary anti-rabbit antibody. The immunoreactive bands were digitally scanned on an EPSON scanner and analyzed using NIH ImageJ v1.38x. The amount of phosphorylated MAPK in each sample was standardized to the amount of total actin protein in the sample.
To determine if compound D3 and NGF induced glycoconjugates secretion via activation of the MAPK pathway, cultured goblet cells from 3 independent rats were stimulated by 10 and 50 μM compound D3, 1 and 10 nM NGF or PMA (100 nM, the positive control) for 5 minutes and MAPK activity was measured by western blot analysis. A representative western blot from 3 independent rat goblet cell cultures is shown in FIG. 9, and the quantification is shown in FIG. 10. There was a statistically significant effect of treatment on MAPK activation (P<0.0001). Compound D3 increased MAPK activity above basal by 2.5±0.3 fold at 10 μM and 2.2±0.5 fold at 50 μM and NGF increased MAPK activity by 2.8±0.5 at 1 nM (P<0.05) and 1.7±0.2 at 10 nM.

[1] = tested on: Conjunctival goblet cells; assay: Conjunctival goblet cell proliferation, WST-8 assay (Example 1); format: cell-based, rat; settings: NGF 1 nM (FIG. 4), 24 hours
Procedure: Cells derived from the explants were grown in RPMI 1640 supplemented with 10% fetal bovine serum (FBS) and penicillin (100 U/mL)/streptomycin (100 μg/mL) at 37° C. in a humidified 5% CO2-atmosphere for seventy-two hours. Contaminating nongoblet cells were removed by scraping them from the plate. During this time, goblet cells migrated from the pieces and began to proliferate. After one week, the goblet cells were trypsinized and plated in twenty-four well culture plates with RPMI-1640 media supplemented with 10% FBS.
Conjunctival goblet cells were grown to subconfluence in 24-well culture plates and then serum deprived for twenty-four hours. […] CGC proliferation was determined with a colorimetric nonradioactive, WST-8 proliferation assay that measures the number of cells. This procedure employs the 2-(2-methoxy-4-nitrophenyl)-3-(4-nitrophenyl)-5-(2,4-disulfophenyl)-2H-tetrazolium, monosodium salt (WST-8), which is cleaved by viable, growing mitochondria to form a dark blue formazan product that is detected by a fluorescence ELISA reader (Bio-Tek, Winooski, Vt.) at 460 nm.
Data for CGC glycoconjugate secretion and proliferation were expressed as the increase (x-fold) above basal value, which was standardized to 1.0. For example, for the 0.3 μM (micromolar), 1 μM and 10 μM doses, the CGC glycoconjugate secretion and proliferation were expressed as test compound over untreated cells. […]

Compound | MAPK activity above basal (p42/44 MAPK; 10 μM) | MAPK activity above basal (p42/44 MAPK; 50 μM) | CGC proliferation [1] | MAPK activity above basal (p42/44 MAPK; 1 nM) | MAPK activity above basal (p42/44 MAPK; 10 nM)
NCCCC[C@@H]1NC(=O)[C@H](CCC(=O)O)NC(=O)c2cc([N+](=O)[O-])ccc2OCCC(C(=O)NCC(=O)O)NC1=O (some centres unmarked) [Compound D3] | 2.5±0.3 fold | 2.2±0.5 fold |  |  | 
NGF: nerve growth factor (recombinant human), positive control |  |  | 1.6±0.3 fold above basal | 2.8±0.5 fold | 1.7±0.2 fold
